Data published in patent EP0003920A1, “Thieno (3,2-c)- and thieno (2,3-c)pyridines, process for their preparation and their therapeutical application” (OMNIUM FINANCIER AQUITAINE POUR L'HYGIENE ET LA SANTE - …, priority 1978, dated 1979).

How the values were obtained:
[1] = system: rat; assay: Anticonvulsant action against electroshock; assay type: in vivo; settings: 100 mg/kg oral, electroshock 30 min after treatment, score 0 to 4, untreated controls 4
Protocol: Cette action a été étudiée vis-à-vis des électrochocs. L'application chez le rat d'une stimulation électrique supérieure au seuil électro-convulsivant provoque des convulsions expérimentales. On compare alors chez les animaux témoins et chez les animaux traités, à la fois la présence et la durée de chacune des phases convulsives et l'intensité de la crise dans son ensemble.
On établit des séries de 10 rats par produit à tester et on administre par la voie orale, à chaque animal, 100 mg/kg de ce produit.
De chaque côté de la base de la queue de chaque […], une électrode Cat mise en place et 30 minutes après le traitement, l'animal placé dans une enceinte de verre reçoit pendant 50 millisecondes un courant sinusoïdal de 50 périodes/secondes de 120 volts.
Le passage du courant déclenche une crise convulsive dont chacune des phases (tonique, clonique, relachement musculaire) est chronométrée. L'intensité de la crise est alors notée de 0 à 4 selon la présence de chacune des phases et leur durée. Les produits de l'invention sont testés comparativement au phénobarbital qui possède une action anti-convulsivante marquée (intensité de la crise = 2), alors que chez les animaux témoins non traités c'est l'intensité maxima de 4 qui est obtenue.

[2] = system: rat; assay: Generalised ovalbumin oedema; assay type: in vivo; settings: po, 100 mg/kg per os 1 h before and together with ovalbumin
Protocol: Une injection intrapéritonéale simultanée de 1 ml d'ovalbumine et de 0,5 ml d'une solution aqueuse de bleu Evans à 1% est effectuée sur le rat. D'autre part, on administre per os aux animaux du lot traité 100 mg/kg du dérivé à tester une heure avant et en même temps que l'ovalbumine. L'intensité du phénomène ainsi provoqué est notée par un chiffre allant de 1 à 5 suivant la progression du syndrome inflammatoire. On détermine ainsi la moyenne de l'intensité oedémateuse et le pourcentage de diminution de la réaction oedémateuse par rapport au témoin, en fonction du temps.

[3] = system: souris; assay: Potentiation of an infra-hypnotic dose of sodium pentobarbital; assay type: in vivo; settings: mouse, 100 mg/kg oral, 30 min before i.p. infra-hypnotic dose of sodium pentobarbital; control 0
Protocol: Les composés de l'invention potentialisent de façon très nette l'action des hypnotiques. En effet, administrés à différents lots de souris par la voie orale, à la dose de 100 mg/ kg, trente minutes avant l'injection intrapéritonéale d'une dose infra-hypnotique de pentobarbital sodique, ils produisent par rapport aux animaux témoins non traités, une nette poten- tialisation de l'action du barbiturique.
En effet, le nombre de souris endormies, le temps moyen d'endormissement et la durée du sommeil sont nettement accrus dans les lots traités. Les résultats des composés les plus actifs sont rassemblés dans le Tableau I suivant.

[4] = system: rat; assay: Localised carrageenan-induced oedema; assay type: in vivo; settings: 100 mg/kg oral at -1 h, 0 h, +2.5 h
Protocol: Une solution de carragénine (0,1 ml), à 1 %, est injectée dans les fléchisseurs métatarsiens de la patte postérieure droite du rat au temps 0. Les animaux du lot traité reçoivent en outre, par la voie orale, 100 mg par kg du dérivé à tester respectivement 1 heure avant, en même temps que l'injection de l'agent phlogogène, puis 1 heure et 2 heures et demi après. Les mesures qui sont effectuées à l'aide du micromètre de ROGH au temps 0, 1 heure, 2 heures, 3 heures et 5 heures après l'administration de la carragénine permettent de déterminer, en fonction du temps, le pourcentage d'activité anti-inflammatoire, par comparaison avec le lot témoin.

[5] = Acute toxicity, intravenous LD50 (method of Miller and Tainter); set-up: species or system souris; settings: mouse, in vivo, read-out: DL50/24 H/kg de poids corporel
Protocol: En ce qui concerne la toxicité aigüe, la DL50/24 H/kg de poids corporel, déterminée chez la souris selon la méthode de Miller et Tainter pour la voie orale est supérieure à 400 mg pour tous les dérivés.
Selon la même méthode, la DL50/24 H/kg de poids corporel déterminée par la vole intraveineuse est, par exemple, de 154 mg pour le dérivé N° 1, de 89 mg pour le dérivé N° 2, de 184mg pour le dérivé N° 10, de 130 mg pour le dérivé N° 11, de 350mg pour le dérivé N° 12, de 65 mg pour le dérivé N° 18, de 90 mg pour le dérivé N° 22, de 96 mg pour le dérivé N° 24 et de 105 mg pour le dérivé N° 31.

[6] = 2 h after ovalbumin injection, read-out: Pourcentage d'activité anti-inflammatoire 2ème heure
[7] = 3 h after ovalbumin injection, read-out: Pourcentage d'activité anti-inflammatoire 3ème heure
[8] = 1 h after carrageenan, read-out: Pourcentage d'activité anti-inflammatoire 1ère heure
[9] = 2 h after carrageenan, read-out: Pourcentage d'activité anti-inflammatoire 2ème heure
[10] = 3 h after carrageenan, read-out: Pourcentage d'activité anti-inflammatoire 3ème heure
[11] = 5 h after carrageenan, read-out: Pourcentage d'activité anti-inflammatoire 5ème heure

Compound	valeurs moyennes de l'intensité des crises [1]	inhibition in vivo at 100 mg/kg [2, 6] [%]	inhibition in vivo at 100 mg/kg [2, 7] [%]	Pourcentage d'animaux endormis [3] [%]	inhibition in vivo at 100 mg/kg [4, 8] [%]	inhibition in vivo at 100 mg/kg [4, 9] [%]	inhibition in vivo at 100 mg/kg [4, 10] [%]	inhibition in vivo at 100 mg/kg [4, 11] [%]	LD50 at 24 h [5] [mg/kg]
CNC(=O)c1cc2sccc2cn1 [Dérivé 1, Méthylaminocarbonyl-6 thiéno [3,2-c] pyridine]	2,5	48	56	70	35	42	46	47	154
O=C(NCc1ccncc1)c1cc2sccc2cn1 [Dérivé 22, (pyridyl-4 méthyl)aminocarbonyl-6 thiéno[3,2-c]pyridine]	–	51	58	70	41	47	51	55	90
O=C(c1cc2sccc2cn1)N1CCCC1 [Dérivé 10, (pyrrolidinyl-1)carbonyl-6 thiéno[3,2-c] pyridine]	–	47	55	90	37	42	46	51	184
NC(=O)c1cc2sccc2cn1 [Dérivé 31, carbamoyl-6 thiéno [3,2-C] pyridine]	2,5	–	–	–	–	–	–	–	105
